Results: patent publication US20110039721A1, “METHOD FOR PREDICTION ABOUT CARCINOGENICITY OF SUBSTANCE IN RODENT” (Chemicals Evaluation and Research Institute, priority 2007, published 2011)

Legend:
[1] = tested on: mRNA expressed from the genes (A) to (D) in rat liver; experiment: Behavior of genes (mRNA expression level, oligo-DNA microarray) in rat liver after 28-day oral administration; assay type: in vivo; conditions: mRNA vs vehicle control group
Summary of the method: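 Male F344 SPF rats, 5 weeks old, four per group, received carcinogens, non-carcinogens or solvent vehicle by oral gavage once daily for 28 days. Liver total RNA was then extracted. Changes of ≥1.5-fold or ≤1/1.5 versus vehicle control, in a consistent direction across carcinogens, counted as significant.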

[2] = classification of the substance (M+/M−); cited from earlier work
[3] = tested on: rodent; conditions: classification of the substance (C+/C−); cited from earlier work
[4] = tested on: liver; conditions: classification of the substance (Cr+/Cr−); cited from earlier work
[5] = gene group (A), Unigene No. Rn.167075
[6] = gene group (C), Unigene No. Rn.120914

SMILES: Clc1ccc(Cl)cc1 [TS026, 1,4-Dichlorobenzene]
- Behavior of gene caused by administration of chemical substance, Gene No. 4846 ([1]; gene group (A), Unigene No. Rn.144554): −
- Behavior of gene caused by administration of chemical substance, Gene No. 2026 [1, 5]: −
- Behavior of gene caused by administration of chemical substance, Gene No. 4218 [1, 5]: −
- Behavior of gene caused by administration of chemical substance, Gene No. 6182 ([1]; gene group (A), Unigene No. Rn.5834): −
- Behavior of gene caused by administration of chemical substance, Gene No. 5600 ([1]; gene group (A), Unigene No. Rn.9836): −
- Behavior of gene caused by administration of chemical substance, Gene No. 1494 ([1]; gene group (B), Unigene No. Rn.1430): +
- Behavior of gene caused by administration of chemical substance, Gene No. 2045 ([1]; gene group (B), Unigene No. Rn.19329): −
- Behavior of gene caused by administration of chemical substance, Gene No. 2203 ([1]; gene group (B), Unigene No. Rn.21240): −
- Behavior of gene caused by administration of chemical substance, Gene No. 533 ([1]; gene group (C), Unigene No. Rn.106184): +
- Behavior of gene caused by administration of chemical substance, Gene No. 725 ([1]; gene group (C), Unigene No. Rn.108075): −
- Behavior of gene caused by administration of chemical substance, Gene No. 1163 ([1]; gene group (C), Unigene No. Rn.11766): −
- Behavior of gene caused by administration of chemical substance, Gene No. 4973 ([1]; gene group (C), Unigene No. Rn.118529): −
- Behavior of gene caused by administration of chemical substance, Gene No. 4095 ([1]; gene group (C), Unigene No. Rn.119024): +
- Behavior of gene caused by administration of chemical substance, Gene No. 1334 [1, 6]: −
- Behavior of gene caused by administration of chemical substance, Gene No. 6620 [1, 6]: −
- Behavior of gene caused by administration of chemical substance, Gene No. 6303 ([1]; gene group (C), Unigene No. Rn.123063): +
- Behavior of gene caused by administration of chemical substance, Gene No. 5878 ([1]; gene group (C), Unigene No. Rn.143213): −
- Behavior of gene caused by administration of chemical substance, Gene No. 1131 ([1]; gene group (C), Unigene No. Rn.144946): −
- Behavior of gene caused by administration of chemical substance, Gene No. 1562 ([1]; gene group (C), Unigene No. Rn.14744): −
- Behavior of gene caused by administration of chemical substance, Gene No. 1741 ([1]; gene group (C), Unigene No. Rn.1647): −
- Behavior of gene caused by administration of chemical substance, Gene No. 893 ([1]; gene group (C), Unigene No. Rn.164817): −
- Behavior of gene caused by administration of chemical substance, Gene No. 6026 ([1]; gene group (C), Unigene No. Rn.167685): +
- Behavior of gene caused by administration of chemical substance, Gene No. 154 ([1]; gene group (C), Unigene No. Rn.185941): −
- Behavior of gene caused by administration of chemical substance, Gene No. 1993 ([1]; gene group (C), Unigene No. Rn.18728): −
- Behavior of gene caused by administration of chemical substance, Gene No. 813 ([1]; gene group (C), Unigene No. Rn.201760): −
- Behavior of gene caused by administration of chemical substance, Gene No. 2494 ([1]; gene group (C), Unigene No. Rn.23969): −
- Behavior of gene caused by administration of chemical substance, Gene No. 2546 ([1]; gene group (C), Unigene No. Rn.24561): −
- Behavior of gene caused by administration of chemical substance, Gene No. 3776 ([1]; gene group (C), Unigene No. Rn.43232): −
- Behavior of gene caused by administration of chemical substance, Gene No. 3929 ([1]; gene group (C), Unigene No. Rn.4620): −
- Behavior of gene caused by administration of chemical substance, Gene No. 1119 ([1]; gene group (C), Unigene No. Rn.9757): −
- Behavior of gene caused by administration of chemical substance, Gene No. 6742 ([1]; gene group (C), Unigene No. Rn.9779): −
- Behavior of gene caused by administration of chemical substance, Gene No. 5634 ([1]; gene group (C), Unigene No. Rn.9862): −
- Behavior of gene caused by administration of chemical substance, Gene No. 5726 ([1]; gene group (D), Unigene No. Rn.9939): +
- Mutagenicity by Ames test [2]: M−
- Carcinogenicity [3]: C+
- Liver carcinogenicity [4]: Cr−
